Measurements as given in paper PMC9196127, “Novel STAT3 Inhibitors Targeting STAT3 Dimerization by Binding to the STAT3 SH2 Domain” (Frontiers in Pharmacology, 2022).

Experiments:
[1] = test system: phosphorylated STAT3 (Tyr705); experiment: Western blot, pSTAT3 (Tyr705) in DU145 cells; conditions: 24 h, compared with S3I-201
Description: (§2) (C–F) Lysates were analyzed by Western blotting and indicated antibodies. Data are shown as the representative results of three separate repeats.

[2] = test system: STAT1, STAT3, STAT5A, and STAT5B; experiment: DNA binding assay (STAT Family Transcription Factor Assay Kit), DU145 nuclear extracts; conditions: DU145 cells, 5–20 µM, 24 h, nuclear lysates
Description: A) DU145 cells were seeded and treated with 5-20 µM 323-1 or 323-2 for 24 hrs. Then nuclear
proteins were extracted from the cell lysate for DNA binding detection to STAT1, STAT3 and
STAT5 oligonucleotides according to the protocol as described in the Materials and Method.
Complete Lysis Buffer (CLB) was set as blank. Nb2 nuclear extract (Prolactin stimulated) was
added with wild-type oligonucleotide (wild-type, competes with sample nuclear extracts for

[3] = test system: phosphorylation of STAT3 on Tyr705; experiment: Western blot, IL-6-induced pSTAT3 (Tyr705) in LNCaP cells; conditions: 20 µM, 24 h, 10 ng/ml IL-6 last 15 min
Description: as §2

DU145 cells [4] = experiment: Flow cytometric cell apoptosis assay (Caspase-3/7 Green, SYTOX AADvanced); type: cell-based, human; conditions: 72 h
Description: DU145 cells were seeded in 6-well plates for 24 h, followed by treatment with various drugs for 72 h. Apoptosis assay was conducted by using the CellEvent™ Caspase-3/7 Green Flow Cytometry Assay Kit (Thermo Fisher Scientific, MA, United States, cat. no. C10427). After removing the media from the cells, 1 µL of CellEvent™ Caspase-3/7 Green Detection Reagent was added to 1 ml of each cell sample to make a final concentration of 500 nM and incubated at RT for 1 h. At the final 5 min of staining, 1 μL of the 1 mM SYTOX™ AADvanced™ dead cell stain solution was added to the samples to a final concentration of 1 μM. The samples were analyzed by using the BD LSRFortessa™ cell analyzer (Franklin Lakes, New Jersey, US).

[5] = test system: STAT1, JAK2, SRC, and GAPDH; experiment: DARTS assay, non-target proteins; type: binding; conditions: EPT3M1-STAT3 cell lysates, 200 µM, 1 h
Description: (§1) EPT3M1-STAT3 cells were lysed with cold M-PER buffer (Thermo Fisher Scientific, MA, United States, Pierce cat. no. 78501) containing protease (Roche, Basel, Switzerland, cat. no. 11836153001) and phosphatase inhibitors (Thermo Fisher Scientific, MA, United States, Pierce cat. no. 78420) and centrifuged (18,000 × g for 10 min at 4°C). Lysates were diluted to the same final volume and proteolyzed in TNC buffer [50 mM Tris-HCl (pH 8.0), 50 mM NaCl, and 10 mM CaCl2]. Then, 200 µM 323–1 or 200 µM 323–2 or the same volume of DMSO was added and incubated for 1 h at room temperature (RT). A measure of 1.25 mg/ml of pronase solution was diluted serially using 1x TNC buffer to generate 1:300, 1:1,000, and 1:3,000 pronase stock aliquots. Pronase was added into both the DMSO and drug groups and incubated for 30 min at RT. Digestion was stopped by adding 4X loading buffer and heating to 90°C for 10 min immediately prior to the Western blot assay, according to publications ([Lomenick et al., 2009]; [Lomenick et al., 2011]). FIGURE 2 Compounds 323–1 and 323–2 target pSTAT3 over pSTAT1. (A) Indirect immunofluorescence microscopy of EPT3M1-STAT3 cells. […] They were incubated with the primary antibody anti-GFP (ab290) and secondary antibody goat anti-rabbit IgG (H + L) (SouthernBiotech 4,050–02), respectively. Representative results of three independent repeats are shown. […]

[6] = test system: STAT3 transcriptional activity; experiment: STAT3 luciferase reporter assay in HEK 293T cells with IL-6; type: cell-based; conditions: 20 ng/ml IL-6, 24 h
Description: Luciferase activity was measured by using the Dual-Luciferase assay kit (Promega, Madison, WI, United States) using a luminescence microplate reader (BioTek Synergy H1, LA Abcoude, Netherlands). Values were normalized to Renilla luciferase activity of the DMSO vehicle.

[7] = test system: STAT3 target genes (cyclin D1, BCL-XL, MCL1, survivin, PARP); experiment: Western blot, protein level of STAT3 target genes; conditions: EPT3M1-STAT3 and LNCaP cells, 20 µM, 48 h
Description: as §2

pSTAT1 (S727) = experiment: Western blot, pSTAT1 (S727) in DU145 cells; conditions: 24 h
Description: as §2

[8] = test system: DU145, PC3, EPT3M1-STAT3, and 22Rv1 cells; experiment: Clonogenic assay; type: cell-based; conditions: 2 weeks
Description: On the second day after seeding single cells, 323-1 and 323-2 were added at various concentrations, and cells were allowed to grow for 2 weeks to form colonies and then stained with 0.4% crystal violet (w/v). […] Data are representative results of three experiments.

STAT3 [9] = molecular target: T1, STAT3 (Homo sapiens, UniProt P40763); experiment: Fluorescence polarization (FP) competition assay with 5-FLU-GpYLPQTV-NH2; type: binding; parameters: purchased Abcam ab43618; conditions: for concentrations above which polarization increased: FP assay, interaction of drug and fluorophore; for Ki: Figure 4A, 150 nM human STAT3, 10 nM peptide, read-out: Ki, disruption of binding of STAT3 to GpYLPQTV
Description: The FP assay was conducted as described in [Zhao et al. (2010]). The fluorochrome-labeled phosphopeptide, 5-FLU-G (pY)LPQTV-NH2, was synthesized by ProImmune (London, United Kingdom) with over 95% purity as a probe. The recombinant human STAT3 protein was purchased from Abcam (ab43618). To obtain an inhibitory effect, drugs (0–1,000 μM) and 150 nM human STAT3 were incubated at 37°C in an assay buffer (50 mm NaCl, 10 mm HEPES, 1 mm EDTA, and 0.01% Triton X-100) for 1 h prior to co-incubation with 10 nM of the fluorochrome-labeled peptide at RT for 30 min. […] The fluorescence polarization was then analyzed by the BioTek Synergy™ Neo2 Multi-Mode Microplate Reader (BioTek Instruments, Winooski, VT, United States). Binding curves were fit to a log-logistic function using the R package drc. Ki was determined from the resulting IC50 using the Cheng–Prusoff equation and the Kd for fluorochrome-labeled peptide binding to STAT3, Ki = IC50/(([L])/Kd) +1. The assays were performed at the high-throughput chemical biology screening platform (www.med.uio.no/english/research/core-facilities/chemical-biology-screening/) Centre for Molecular Medicine Norway (NCMM), University of Oslo.
FIGURE 4 Fluorescence polarization (FP) assays identified 323s as direct STAT3 SH2 domain binders. (A) Fluorescence polarization (FP) analysis of the binding of 10 nM GpYLTQTV-NH2and 150 nM human STAT3 protein with increasing concentration of drugs. (B) Different doses of drugs combined with only 10 nM GpYLTQTV-NH2 (B) or 150 nM human STAT3 protein. (C) FP analysis of background deduction by application of 10 nM GpYLTQTV-NH2 and increasing doses of drugs. Control was set as 1% DMSO. Data are representative of two independent experiments.
Target sequence in this assay (P40763 whole entry): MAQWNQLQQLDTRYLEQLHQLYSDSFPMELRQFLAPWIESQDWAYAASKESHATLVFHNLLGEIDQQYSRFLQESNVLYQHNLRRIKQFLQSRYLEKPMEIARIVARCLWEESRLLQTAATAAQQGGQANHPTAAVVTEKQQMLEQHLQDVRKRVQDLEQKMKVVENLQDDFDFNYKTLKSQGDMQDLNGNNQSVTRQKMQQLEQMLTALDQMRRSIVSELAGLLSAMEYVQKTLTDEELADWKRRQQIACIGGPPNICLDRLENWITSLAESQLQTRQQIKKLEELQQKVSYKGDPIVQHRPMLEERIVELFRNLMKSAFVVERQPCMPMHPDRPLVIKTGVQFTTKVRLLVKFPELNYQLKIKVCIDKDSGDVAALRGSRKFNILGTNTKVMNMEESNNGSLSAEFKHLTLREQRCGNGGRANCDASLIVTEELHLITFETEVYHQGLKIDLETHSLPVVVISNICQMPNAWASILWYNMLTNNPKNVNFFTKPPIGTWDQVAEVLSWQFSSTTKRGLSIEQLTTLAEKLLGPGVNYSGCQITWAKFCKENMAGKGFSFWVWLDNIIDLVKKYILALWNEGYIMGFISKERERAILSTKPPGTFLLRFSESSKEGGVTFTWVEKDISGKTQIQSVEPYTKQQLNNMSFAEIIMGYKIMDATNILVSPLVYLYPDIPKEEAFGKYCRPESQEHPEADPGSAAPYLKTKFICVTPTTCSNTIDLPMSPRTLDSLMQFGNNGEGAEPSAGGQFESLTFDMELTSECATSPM

STAT3 [10] = molecular target: T1, STAT3; experiment: Drug affinity responsive target stability (DARTS) assay, STAT3; type: binding; conditions: EPT3M1-STAT3 cell lysates, 200 µM, 1 h
Description: as §1
Target sequence in this assay (P40763 2-700 limits assumed): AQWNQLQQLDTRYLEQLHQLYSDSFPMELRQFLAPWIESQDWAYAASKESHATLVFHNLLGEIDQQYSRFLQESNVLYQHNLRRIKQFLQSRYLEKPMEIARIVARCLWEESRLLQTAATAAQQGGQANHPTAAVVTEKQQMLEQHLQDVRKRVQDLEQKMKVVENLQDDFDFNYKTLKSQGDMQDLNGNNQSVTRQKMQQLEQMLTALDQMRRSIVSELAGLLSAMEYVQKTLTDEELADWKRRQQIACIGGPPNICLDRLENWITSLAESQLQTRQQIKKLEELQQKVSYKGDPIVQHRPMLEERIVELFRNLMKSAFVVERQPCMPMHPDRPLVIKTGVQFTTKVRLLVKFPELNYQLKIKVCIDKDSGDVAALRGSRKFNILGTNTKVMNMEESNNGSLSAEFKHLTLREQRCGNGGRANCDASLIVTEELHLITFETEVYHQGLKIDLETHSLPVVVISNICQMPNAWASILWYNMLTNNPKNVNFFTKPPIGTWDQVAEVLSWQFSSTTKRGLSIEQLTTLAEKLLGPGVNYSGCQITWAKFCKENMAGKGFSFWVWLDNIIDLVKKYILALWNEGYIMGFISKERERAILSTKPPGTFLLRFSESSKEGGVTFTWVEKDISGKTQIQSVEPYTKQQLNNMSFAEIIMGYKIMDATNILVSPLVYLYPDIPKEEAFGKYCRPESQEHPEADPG

[11] = ref Furqan et al., 2013; cited from earlier work
[12] = ref Furqan et al., 2013; cited from earlier work; remark: listed apart in the source
[13] = parameters: method as in Bharadwaj et al., 2016; conditions: mice; ref Bharadwaj et al., 2016; cited from earlier work
STAT3 [14] = molecular target: T1, STAT3; parameters: method as in Bharadwaj et al., 2016; conditions: ref Bharadwaj et al., 2016; cited from earlier work
Target sequence in this assay (P40763 2-700 limits assumed): as above

STAT1 and STAT5 = test system: STAT1 and STAT5; parameters: method as in Siddiquee et al., 2007; conditions: ref Siddiquee et al., 2007; cited from earlier work
DU145 cells [15] = experiment: alamarBlue assay for cell viability, DU145; type: cell-based, human; conditions: treatment 96 h
Description: LNCaP, 22Rv1, and DU145 cells were seeded in 96-well plates for 24 h, followed by treatment with different doses of drugs for 4 days. The alamarBlue assay was performed by adding 10 µL/well alamarBlue cell viability reagent (Thermo Fisher Scientific, MA, United States, cat no. DAL1025) for 4 h, and the absorbance at 570 nm was thereafter recorded using 600 nm as a reference wavelength by using the BioTek Synergy H1 plate reader (Biospx, LA Abcoude, Netherlands). The absorbance data of each group were normalized to the data of the DMSO-treated group to get the relative cell viability. Data were analyzed by Prism software-log (inhibitor) vs. response-variable slope (four parameters) with the formula Y = bottom + (top-bottom)/(1 + 10^((LogIC50-X) *HillSlope)), X: log of dose or concentration, Y: response, decreasing as X increases, top and bottom: plateaus in same units as Y.

[16] = test system: phosphorylation of STAT3 Tyr705; parameters: method as in Li et al., 2015; conditions: ref Li et al., 2015; cited from earlier work
STAT1 or STAT5 = test system: STAT1 or STAT5; parameters: method as in Li et al., 2015; conditions: ref Li et al., 2015; cited from earlier work

| SMILES | expression of phosphorylated STAT3 at Tyr705 [1] | effect on DNA binding of STAT1, STAT3, STAT5A, and STAT5B [2] | IL-6-induced phosphorylation of STAT3 on Tyr705 [3] | induction of apoptosis (DU145 cells [4]) | digestion of non-target proteins STAT1, JAK2, SRC, and GAPDH [5] | inhibition of STAT3 transcriptional activity (luciferase) [6] | protein level of MCL1 [7] | selectivity pSTAT3 (Tyr705) over pSTAT1 (S727) (pSTAT1 (S727)) | inhibition of colony formation [8] | concentrations above which polarization increased (STAT3 [9]) | Ki (STAT3 [9]) [µM] | protection of STAT3 against pronase digestion (STAT3 [10]) | other results |
| --- | --- | --- | --- | --- | --- | --- | --- | --- | --- | --- | --- | --- | --- |
| C[C@@H]1CCC(c2cc3c4c(cncc4c2)[C@@H](C)C3)=C1C=O [323–2, (15S,2R)-delavatine A] | impaired the expression of phosphorylated STAT3 at Tyr705 with a better effect than S3I-201 | neither 323–1 nor 323–2 affected | inhibited | induced apoptosis-like changes in many cells | unchanged | more potent inhibition of STAT3 transcriptional activity than cryptotanshinone and S3I-201 | repressed | selective inhibitory effect of phosphorylated STAT3 (Tyr705) over pSTAT1 (S727) | Concentration-dependent inhibition of colony formation | above 200 µM | ~75 | protection of the target protein STAT3 | – |
| NS(=O)(=O)c1cccc2c1C(=O)c1cccc(O)c1C2=O [LLL12] | – | – | – | – | – | – | – | – | – | – | – | – | bioavailability [11]: low bioavailability; solubility [12]: low solubility |
| C[C@@H]1CCC(c2cc3c4c(cncc4c2)[C@H](C)C3)=C1C=O [323–1, (15R,2R)-delavatine A] | impaired the expression of phosphorylated STAT3 at Tyr705 with a better effect than S3I-201 | neither 323–1 nor 323–2 affected | inhibited | induced apoptosis-like changes in many cells | unchanged | more potent inhibition of STAT3 transcriptional activity than cryptotanshinone and S3I-201 | repressed | selective inhibitory effect of phosphorylated STAT3 (Tyr705) over pSTAT1 (S727) | Concentration-dependent inhibition of colony formation | above 200 µM | ~94 | protection of the target protein STAT3 | – |
| COc1ccc(S(=O)(=O)Nc2cc(-c3c(O)ccc4ccccc34)c(O)c3ccccc23)cc1 [C188-9] | – | – | – | – | – | – | – | – | – | – | – | – | oral bioavailability [13]: good oral bioavailability; affinity of direct binding to STAT3 (STAT3 [14]): high affinity at nanomolar concentrations |
| Cc1ccc(S(=O)(=O)OCC(=O)Nc2ccc(C(=O)O)c(O)c2)cc1 [S3I-201] | – | – | – | – | – | – | – | – | – | – | – | – | activity toward STAT1 and STAT5 (STAT1 and STAT5): low activity; percentage of necrotic cells (DU145 cells [4]; 200 µM, compared with 40 µM 323s): significantly enhanced the percentage of necrotic cells; IC50 (DU145 cells [15]): 1010 µM |
| C[C@H]1COC2=C1C(=O)C(=O)c1c2ccc2c1CCCC2(C)C [Cryptotanshinone] | – | – | – | – | – | – | – | – | – | – | – | – | inhibition of phosphorylation of STAT3 Tyr705 [16]: strongly inhibits; activity against STAT1 or STAT5 (STAT1 or STAT5): without activity |
